According to patent US20150329501A1, “SUBSTITUTED [1,2,4]TRIAZOLE COMPOUNDS AND THEIR USE AS FUNGICIDES” (BASF SE, priority 2012, published 2015):

Key:
[1] = test system: Septoria tritici; experiment: Microtest: activity against leaf blotch on wheat caused by Septoria tritici (Septtr) (M1, M6, M2-3, CM4); assay type: cell-based; details: 405 nm, 7 days after inoculation; for relative growth in % of the pathogen: 31 ppm, compound-free control = 100%; for Growth (%) at 0.5 ppm Septtr: relative growth vs active compound-free control (100%), microtiter plate
[2] = test system: Botrytis cinerea; experiment: Green house: preventative fungicidal control of Botrytis cinerea on leaves of green pepper (Botrci P1) (G2-1); assay type: in vivo; details: 125 ppm, sprayed the day before inoculation, untreated plants 90% infected
Procedure: Young seedlings of green pepper were grown in pots to the 4 to 5 leaf stage. […] The next day the plants were inoculated with an aqueous biomalt solution containing the spore suspension of Botrytis cinerea.

[3] = test system: Phakopsora pachyrhizi; experiment: Green house: curative control of soy bean rust on soy beans caused by Phakopsora pachyrhizi (Phakpa K2) (G2-3); assay type: in vivo; details: 125 ppm, sprayed after inoculation (curative), untreated plants 90% infected
[4] = test system: Alternaria solani; experiment: Green house: preventative fungicidal control of early blight on tomatoes (Alternaria solani) (Alteso P1) (G2, G2-2); details: 125 ppm, sprayed the day before inoculation; tomato; untreated plants 70% infected
Procedure: Water was then added to total volume of 100 ml. This stock solution was diluted with the described solvent-emulsifier-water mixture to the given concentration.
Young seedlings of tomato plants were grown in pots. These plants were sprayed to run-off with an aqueous suspension, containing the concentration of active ingredient or mixture mentioned in the table below. The next day, the treated plants were inoculated with an aqueous suspension of Alternaria solani. Then the trial plants were immediately transferred to a humid chamber. After 5 days at 18 to 20° C. and a relative humidity close to 100%, the extent of fungal attack on the leaves was visually assessed as % diseased leaf area.

[5] = test system: Botrytis cinerea; experiment: Microtest: activity against the grey mold Botrytis cinerea in the microtiterplate test (Botrci) (M2, M4, M2-1, CM3); assay type: cell-based; details: relative growth vs active compound-free control (100%), microtiter plate, 405 nm, 7 days after inoculation
[6] = test system: Pyricularia oryzae; assay type: cell-based; details: relative growth vs active compound-free control (100%), microtiter plate, 405 nm, 7 days after inoculation
[7] = test system: Phytophthora infestans; assay type: cell-based; details: relative growth vs active compound-free control (100%), microtiter plate, 405 nm, 7 days after inoculation

C#CCC(O)(Cn1cncn1)c1cccc(-c2ccc(Cl)cc2)c1 (stereo not shown) [Compound I-30]
relative growth in % of the pathogen [1]: 0% | infection (% diseased leaf area) [2]: 1% | infection (% diseased leaf area) [3]: 1% | infection (% diseased leaf area) [4]: 1%

CC(C)(C)C(O)(Cn1cncn1)c1cccc(Oc2ccccc2)c1 (stereo not shown)
Growth (%) at 0.5 ppm Septtr [1]: 83% | Growth (%) at 31 ppm Botrci [5]: 76% | Growth (%) at 8 ppm Pyrior [6]: 89% | Growth (%) at 31 ppm Phytin [7]: 80%

CC(C)(C)C(O)(Cn1cncn1)c1cc(Cl)cc(-c2ccc(Cl)cc2)c1 (stereo not shown) [Compound I-27]
infection (% diseased leaf area) [3]: 7%

CC(C)(C)C(O)(Cn1cncn1)c1cc(Cl)cc(Oc2ccc(Cl)cc2)c1 (stereo not shown) [Compound I-31]
Growth (%) at 8 ppm Pyrior [6]: 0%

OC(Cn1cncn1)(c1cccc(-c2ccc(Cl)cc2)c1)C(F)(F)F (stereo not shown) [Compound I-29]
relative growth in % of the pathogen [1]: 0% | infection (% diseased leaf area) [2]: 1% | infection (% diseased leaf area) [3]: 0% | infection (% diseased leaf area) [4]: 10%

CC(C)(C)C(O)(Cn1cncn1)c1cc(Cl)cc(Oc2ccccc2)c1 (stereo not shown)
Growth (%) at 8 ppm Pyrior [6]: 69%

CC(C)(C)C(O)(Cn1cncn1)c1cccc(Oc2ccc(Cl)cc2)c1 (stereo not shown) [Compound I-24]
Growth (%) at 0.5 ppm Septtr [1]: 13% | Growth (%) at 31 ppm Botrci [5]: 9% | Growth (%) at 8 ppm Pyrior [6]: 0% | Growth (%) at 31 ppm Phytin [7]: 42%
